Measured values as given in paper PMC8523698, “Preclinical characterization of an intravenous coronavirus 3CL protease inhibitor for the potential treatment of COVID19” (Nature Communications, 2021).
pIC50: −log10 of the molar value. Values joined by “and” are separate entries in the source; they are usually repeats but may differ in a detail not shown here. Equal entries are not always repeated. Where two headings read alike, the source gives them in different places.

What was measured:
[1] = target: T1, CYP1A2 (Homo sapiens, UniProt P05177); experiment: Reversible CYP inhibition in human liver microsomes; details: for activity at 0.1 µM / activity at 0.214 µM / activity at 0.979 µM / activity at 2.09 µM / activity at 4.48 µM / activity at 20.5 µM / activity at 43.8 µM / activity at 93.5 µM / activity at 200 µM / activity at 0.01 µM / activity at 0.158 µM / activity at 0.398 µM / activity at 1 µM / activity at 15.8 µM / activity at 39.8 µM / activity at 100 µM: pH 7.4, Percent of Control Activity
T1 sequence (P05177 1-516): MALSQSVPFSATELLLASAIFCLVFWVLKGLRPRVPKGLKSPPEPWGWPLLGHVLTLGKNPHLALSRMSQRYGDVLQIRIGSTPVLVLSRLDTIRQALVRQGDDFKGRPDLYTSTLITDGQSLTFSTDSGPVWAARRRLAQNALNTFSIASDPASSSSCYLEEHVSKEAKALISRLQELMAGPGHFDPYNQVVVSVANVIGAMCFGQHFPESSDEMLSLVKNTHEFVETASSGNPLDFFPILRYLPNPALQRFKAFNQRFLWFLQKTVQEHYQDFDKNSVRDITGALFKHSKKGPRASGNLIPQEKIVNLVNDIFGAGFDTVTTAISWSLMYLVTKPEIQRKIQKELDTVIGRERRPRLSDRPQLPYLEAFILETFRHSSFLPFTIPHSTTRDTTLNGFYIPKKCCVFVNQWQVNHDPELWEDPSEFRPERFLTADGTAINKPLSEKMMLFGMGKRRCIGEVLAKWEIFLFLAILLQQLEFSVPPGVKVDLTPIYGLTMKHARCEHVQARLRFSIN

[2] = target: T2, OCT2 (Homo sapiens, UniProt O15244); experiment: Transporter inhibition using transfected HEK293 cells
T2 sequence (O15244 1-555): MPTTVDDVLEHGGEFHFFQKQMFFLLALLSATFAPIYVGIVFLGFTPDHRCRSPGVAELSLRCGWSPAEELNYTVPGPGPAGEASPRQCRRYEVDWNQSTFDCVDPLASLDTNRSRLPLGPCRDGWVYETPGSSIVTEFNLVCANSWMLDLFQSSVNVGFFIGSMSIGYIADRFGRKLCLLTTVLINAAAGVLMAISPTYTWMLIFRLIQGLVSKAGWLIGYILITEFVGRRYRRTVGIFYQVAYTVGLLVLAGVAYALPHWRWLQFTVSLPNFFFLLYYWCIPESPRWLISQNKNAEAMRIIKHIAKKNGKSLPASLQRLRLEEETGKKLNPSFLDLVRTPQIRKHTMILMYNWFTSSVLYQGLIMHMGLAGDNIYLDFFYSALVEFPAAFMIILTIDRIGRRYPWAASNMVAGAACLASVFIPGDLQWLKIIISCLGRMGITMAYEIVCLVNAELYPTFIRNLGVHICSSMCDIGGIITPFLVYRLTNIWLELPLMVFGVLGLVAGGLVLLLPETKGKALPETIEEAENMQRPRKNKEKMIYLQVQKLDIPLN

[3] = tested on: MRC-5 cells; experiment: Cytotoxicity in MRC-5 cells; details: MRC-5, plus 0.5 uM efflux inhibitor; one value per run date (N=3)

For COc1cccc2[nH]c(C(=O)N[C@@H](CC(C)C)C(=O)N[C@@H](C[C@@H]3CCNC3=O)C(=O)CO)cc12 [PF-00835231], the “Percent of Control Activity” value ([1]; CYP 1A2, 0.1 µM, 30-Minute Preincubation, 0.1 µM) was 100.7% and 97.2%, the “Percent of Control Activity” value ([1]; CYP 1A2, 0.1 µM, Zero-Minute Preincubation, 0.1 µM) was 91.5% and the “Percent of Control Activity” value ([1]; CYP 1A2, 0.214 µM, 30-Minute Preincubation, 0.214 µM) was 101.6% and 102.2%. The “Percent of Control Activity” value ([1]; CYP 1A2, 0.214 µM, Zero-Minute Preincubation, 0.214 µM) was 97.3%, the “Percent of Control Activity” value ([1]; CYP 1A2, 0.979 µM, 30-Minute Preincubation, 0.979 µM) was 100.1% and 99.5% and the “Percent of Control Activity” value ([1]; CYP 1A2, 0.979 µM, Zero-Minute Preincubation, 0.979 µM) was 99.8% and 102.1%. For the same molecule, the “Percent of Control Activity” value ([1]; CYP 1A2, 2.09 µM, 30-Minute Preincubation, 2.09 µM) was 98.8%, the “Percent of Control Activity” value ([1]; CYP 1A2, 2.09 µM, Zero-Minute Preincubation, 2.09 µM) was 90.6% and 85.1% and the “Percent of Control Activity” value ([1]; CYP 1A2, 4.48 µM, 30-Minute Preincubation, 4.48 µM) was 99.2% and 99.5%. The “Percent of Control Activity” value ([1]; CYP 1A2, 4.48 µM, Zero-Minute Preincubation, 4.48 µM) was 97.7%, the “Percent of Control Activity” value ([1]; CYP 1A2, 20.5 µM, 30-Minute Preincubation, 20.5 µM) was 99.6% and 97.2% and the “Percent of Control Activity” value ([1]; CYP 1A2, 20.5 µM, Zero-Minute Preincubation, 20.5 µM) was 95.6% and 98.0%. The “Percent of Control Activity” value ([1]; CYP 1A2, 43.8 µM, 30-Minute Preincubation, 43.8 µM) was 96.6% and 97.7%, the “Percent of Control Activity” value ([1]; CYP 1A2, 43.8 µM, Zero-Minute Preincubation, 43.8 µM) was 92.9% and 93.4% and the “Percent of Control Activity” value ([1]; CYP 1A2, 93.5 µM, 30-Minute Preincubation, 93.5 µM) was 90.5% and 95.8%. The “Percent of Control Activity” value ([1]; CYP 1A2, 93.5 µM, Zero-Minute Preincubation, 93.5 µM) was 76.6% and 87.4%, the “Percent of Control Activity” value ([1]; CYP 1A2, 200 µM, 30-Minute Preincubation, 200 µM) was 92.7% and 91.0% and the “Percent of Control Activity” value ([1]; CYP 1A2, 200 µM, Zero-Minute Preincubation, 200 µM) was 81.0% and 74.4%. For the same molecule, the pIC50 ([1]; human, microsomes, pH 7.4) was under 3.70, the activity at 0.1 µM ([1]; human, microsomes, CYP 1A2, 0.1 µM, 30-Minute Preincubation) was 98% and the activity at 0.1 µM ([1]; human, microsomes, CYP 1A2, 0.1 µM, Zero-Minute Preincubation) was 97.8%. The activity at 0.214 µM ([1]; human, microsomes, CYP 1A2, 0.214 µM, 30-Minute Preincubation) was 96.5%, the activity at 0.214 µM ([1]; human, microsomes, CYP 1A2, 0.214 µM, Zero-Minute Preincubation) was 98.4% and the activity at 0.979 µM ([1]; human, microsomes, CYP 1A2, 0.979 µM, 30-Minute Preincubation) was 98.9%. The activity at 0.979 µM ([1]; human, microsomes, CYP 1A2, 0.979 µM, Zero-Minute Preincubation) was 97.6%, the activity at 2.09 µM ([1]; human, microsomes, CYP 1A2, 2.09 µM, 30-Minute Preincubation) was 98.3% and the activity at 2.09 µM ([1]; human, microsomes, CYP 1A2, 2.09 µM, Zero-Minute Preincubation) was 97.8%. For the same molecule, the activity at 4.48 µM ([1]; human, microsomes, CYP 1A2, 4.48 µM, 30-Minute Preincubation) was 97%, the activity at 4.48 µM ([1]; human, microsomes, CYP 1A2, 4.48 µM, Zero-Minute Preincubation) was 99.3% and the activity at 20.5 µM ([1]; human, microsomes, CYP 1A2, 20.5 µM, 30-Minute Preincubation) was 97.1%. It also gave an activity at 20.5 µM ([1]; human, microsomes, CYP 1A2, 20.5 µM, Zero-Minute Preincubation) of 99.4%, an activity at 43.8 µM ([1]; human, microsomes, CYP 1A2, 43.8 µM, 30-Minute Preincubation) of 95.9% and an activity at 43.8 µM ([1]; human, microsomes, CYP 1A2, 43.8 µM, Zero-Minute Preincubation) of 94.2%. It also gave an activity at 93.5 µM ([1]; human, microsomes, CYP 1A2, 93.5 µM, 30-Minute Preincubation) of 89.6%, an activity at 93.5 µM ([1]; human, microsomes, CYP 1A2, 93.5 µM, Zero-Minute Preincubation) of 84.6% and an activity at 200 µM ([1]; human, microsomes, CYP 1A2, 200 µM, 30-Minute Preincubation) of 93.6%. For the same molecule, the activity at 200 µM ([1]; human, microsomes, CYP 1A2, 200 µM, Zero-Minute Preincubation) was 81.3%, the pIC50 [2] was under 3.52 and the pIC50 ([2]; human, HEK293 cells stably transfected with OCT2, pH 7.4, probe [14C]-metformin (20 µM)) was under 4.70.
COc1cccc2[nH]c(C(=O)N[C@@H](CC(C)C)C(=O)N[C@@H](C[C@@H]3CCNC3=O)C(=O)COP(=O)(O)O)cc12 [PF-07304814] was tested, and the CC50 [3] was over 100 µM, the pIC50 [1] was under 4.00 and the “Percent of Control Activity” value ([1]; CYP 1A2, 0.01 µM, 30-Minute Preincubation, 0.01 µM) was 103.6% and 101.2%. For the same molecule, the “Percent of Control Activity” value ([1]; CYP 1A2, 0.01 µM, Zero-Minute Preincubation, 0.01 µM) was 97.5%, the “Percent of Control Activity” value ([1]; CYP 1A2, 0.158 µM, 30-Minute Preincubation, 0.158 µM) was 95.4% and 101.9% and the “Percent of Control Activity” value ([1]; CYP 1A2, 0.158 µM, Zero-Minute Preincubation, 0.158 µM) was 97.0% and 100.9%. The “Percent of Control Activity” value ([1]; CYP 1A2, 0.398 µM, 30-Minute Preincubation, 0.398 µM) was 101.4% and 101.2%, the “Percent of Control Activity” value ([1]; CYP 1A2, 0.398 µM, Zero-Minute Preincubation, 0.398 µM) was 96.0% and 97.7% and the “Percent of Control Activity” value ([1]; CYP 1A2, 1 µM, 30-Minute Preincubation, 1 µM) was 102.8% and 101.6%. For the same molecule, the “Percent of Control Activity” value ([1]; CYP 1A2, 1 µM, Zero-Minute Preincubation, 1 µM) was 94.7% and 96.1%, the “Percent of Control Activity” value ([1]; CYP 1A2, 15.8 µM, 30-Minute Preincubation, 15.8 µM) was 103.2% and the “Percent of Control Activity” value ([1]; CYP 1A2, 39.8 µM, 30-Minute Preincubation, 39.8 µM) was 101.7% and 102.7%. For the same molecule, the “Percent of Control Activity” value ([1]; CYP 1A2, 39.8 µM, Zero-Minute Preincubation, 39.8 µM) was 98.4% and 99.6%, the “Percent of Control Activity” value ([1]; CYP 1A2, 100 µM, 30-Minute Preincubation, 100 µM) was 104.3% and 102.5% and the “Percent of Control Activity” value ([1]; CYP 1A2, 100 µM, Zero-Minute Preincubation, 100 µM) was 94.4% and 97.1%. For the same molecule, the pIC50 ([1]; Phenacetin O-dealkylation, 30-minute preincubation (T30)) was under 4.00, the activity at 0.01 µM ([1]; human, microsomes, CYP 1A2, 0.01 µM, 30-Minute Preincubation) was 96.7% and the activity at 0.01 µM ([1]; human, microsomes, CYP 1A2, 0.01 µM, Zero-Minute Preincubation) was 100%. For the same molecule, the activity at 0.158 µM ([1]; human, microsomes, CYP 1A2, 0.158 µM, 30-Minute Preincubation) was 102%, the activity at 0.158 µM ([1]; human, microsomes, CYP 1A2, 0.158 µM, Zero-Minute Preincubation) was 96.4% and the activity at 0.398 µM ([1]; human, microsomes, CYP 1A2, 0.398 µM, 30-Minute Preincubation) was 102%. For the same molecule, the activity at 0.398 µM ([1]; human, microsomes, CYP 1A2, 0.398 µM, Zero-Minute Preincubation) was 98.5%, the activity at 1 µM ([1]; human, microsomes, CYP 1A2, 1 µM, 30-Minute Preincubation) was 100% and the activity at 1 µM ([1]; human, microsomes, CYP 1A2, 1 µM, Zero-Minute Preincubation) was 99.4%. For the same molecule, the activity at 15.8 µM ([1]; human, microsomes, CYP 1A2, 15.8 µM, 30-Minute Preincubation) was 102%, the activity at 15.8 µM ([1]; human, microsomes, CYP 1A2, 15.8 µM, Zero-Minute Preincubation) was 100% and the activity at 39.8 µM ([1]; human, microsomes, CYP 1A2, 39.8 µM, 30-Minute Preincubation) was 102%. It also gave an activity at 39.8 µM ([1]; human, microsomes, CYP 1A2, 39.8 µM, Zero-Minute Preincubation) of 98.5%, an activity at 100 µM ([1]; human, microsomes, CYP 1A2, 100 µM, 30-Minute Preincubation) of 103% and an activity at 100 µM ([1]; human, microsomes, CYP 1A2, 100 µM, Zero-Minute Preincubation) of 97.8%. The pIC50 ([2]; IC50, [14C]Metformin (20 µM)) was under 3.52.
